Assay results published in publication PMC7688903 (Frontiers in Microbiology, 2020).
Where a SMILES comes first, the peptide text is derived from it. [ ]: non-standard residue; d: D form. 2Thi = N[C@@H](Cc1cccs1)C(=O)O; Aib = CC(C)(N)C(=O)O

How the values were obtained:
[1] = Circular dichroism spectroscopy, secondary structure; assay type: physicochemical; details: 0.1 mg/mL, 25°C; for [θ]222: average of three scans; for %α-helix: from [θ]222
Description: The secondary structures of Pep05 and its derivatives were investigated using a Chirascan qCD Spectrometer (Applied Photophysics, United Kingdom). The peptides were dissolved to a final concentration of 0.1 mg/mL in four different solvents, namely, 10 mM phosphate buffer (PB; pH 7.4), 50% TFE/PB, 25 mM SDS in PB, and 0.1% LPS in PB ([Kim et al., 2017]). Circular dichroism (CD) spectra were recorded from 260 to 190 nm at 25°C as the average of three scans. Data were collected using a path length of 0.1 cm, scan speed of 50 nm/min, bandwidth of 1.0 nm, response time of 1 s, and resolution of 0.1 nm ([Khara et al., 2016]). Following background subtraction, the observed ellipticity [θ]obs (mdeg) was converted to molar ellipticity [θ] (deg⋅cm^2⋅dmol^–1) using the equation [θ] = [θ]obs(MRW/10cl), where [θ]obs is the observed ellipticity corrected for the blank at a given wavelength (mdeg), MRW is the mean residue molecular weight (molecular weight/number of amino acids), c is the peptide concentration (mg/mL), and l is the path length (cm). Assuming a two-state model, the percentage of α-helix structure was calculated using the following equation: α-helical content = −([θ]222 + 2000)/30000 × 100% ([Jia et al., 2017]).
The influence of the amino acid substitutions on the peptide secondary structure was investigated using CD spectroscopy under different conditions, including 10 mM PB at pH 7.4 (mimicking an aqueous environment), 50% TFE (mimicking a hydrophobic bacterial membrane environment), 25 mM SDS (mimicking a negatively charged bacterial membrane environment), and 0.1% LPS (mimicking a bacterial outer membrane environment).

P. aeruginosa ATCC 9027 = experiment: In vivo antibacterial activity, lethal intraperitoneal infection; details: BALB/c mice, lethal i.p. dose of P. aeruginosa ATCC 9027, 10 mg/kg i.p. at 1 and 8 h post-infection, n = 10
Description: The in vivo antibacterial activities of the peptides were evaluated in BALB/c mice using P. aeruginosa ATCC 9027 as a test strain. A total of 20 mice (6 weeks old, approximate weight: 18–20 g, SFP grade) were first used to measure the minimal lethal doses (MLD) with 5 mice for each inoculum. Cell numbers of selected strains were determined from the colony numbers from the plate count agar and four inocula (1 × 10^6, 5 × 10^6, 1 × 10^7, and 5 × 10^7 CFU/mouse) were administered via intraperitoneal injection. The minimal lethal dose was determined by measuring the mortality rate after 72 h. BALB/c mice were then injected intraperitoneally with a lethal dose of P. aeruginosa ATCC 9027. […] Colistin (10 mg/kg) was used as a positive control. The survival of the animals was monitored over 7 d.

CC(C)C[C@H](NC(=O)[C@H](Cc1ccc(O)cc1)NC(=O)[C@H](CCCCN)NC(=O)[C@H](CC(C)C)NC(=O)[C@H](CC(C)C)NC(=O)[C@H](CCCCN)NC(=O)[C@H](CCCCN)NC(=O)[C@H](Cc1ccccc1)NC(=O)[C@H](CC(C)C)NC(=O)[C@H](CCCNC(=N)N)NC(=O)C(C)(C)N)C(=O)N[C@@H](CCCNC(=N)N)C(=O)N[C@@H](CCCCN)C(=O)N[C@@H](Cc1cccs1)C(N)=O [UP09] (H-[Aib]RLFKKLLKYLRK[2Thi]-NH2; N-terminus assumed)
[θ]222 ([1]; 10 mM PB buffer pH 7.4): –1842.7 deg⋅cm^2⋅dmol^–1 | %α-helix ([1]; 10 mM PB buffer pH 7.4, rc = random coil): rc | [θ]222 ([1]; 25 mM SDS in PB): –4643.3 deg⋅cm^2⋅dmol^–1 | %α-helix ([1]; 25 mM SDS in PB, rc = random coil): 8.8% | [θ]222 ([1]; 0.1% LPS in PB): –11064.1 deg⋅cm^2⋅dmol^–1 | %α-helix ([1]; 0.1% LPS in PB): 30.2% | [θ]222 ([1]; 50% TFE/PB): –11436.9 deg⋅cm^2⋅dmol^–1 | %α-helix ([1]; 50% TFE/PB, rc = random coil): 31.5% | survival rate (P. aeruginosa ATCC 9027; after 3 d): 40% | survival rate (P. aeruginosa ATCC 9027; after 7 d): 10%
